As usually defined, the IC50 is the midpoint of a concentration-inhibition curve. One may read the Papp A→B as how fast a substance crosses the layer from the apical side. As a reminder, the efflux ratio is the permeability from basolateral to apical divided by that in the opposite direction, in the common usage.

In data set [1] the test system is IFNα-induced pSTAT5 in human whole blood (CD3 positive population). The experiment in a line: IFNα-Induced STAT Phosphorylation in Human Whole Blood. In kind it is cell-based. As to conditions: 1 h incubation with compound, 1000 U/mL IFNα A/D for 15 min, read-out: Human Whole blood IFNa pSTAT5 IC50. The method, then:
IFNα-Induced STAT Phosphorylation in Human Whole Blood
After an hour long incubation with compound, human whole blood (drawn with ACD-A as anticoagulant) was stimulated with 1000 U/mL recombinant human IFNα A/D (R&D Systems 11200-2) for 15 min. The stimulation was stopped by adding Fix/Lyse buffer (BD 558049). Cells were stained with a CD3 FITC antibody (BD 555916), washed, and permeabilized on ice using Perm III buffer (BD 558050). Cells were then stained with an Alexa-Fluor 647 pSTAT5 (pY694) antibody (BD 612599) for 60 min prior to analysis on the iQue Plus. The amount of pSTAT5 expression was quantitated by median fluorescence intensity after gating on the CD3 positive population.

In another data set the test system is Caco-2 cells. As to conditions: human, Caco-2, 2 h, 3 μM, pH 7.4.
A further data set is described as follows: in vitro. The conditions noted are these: human, Caco-2, pH 7.4.
The nature of data set [2]: Brain Penetration In Vivo Assay. Details: species or system C57BL6 wild-type mice. As to conditions: C57BL6, brain and plasma, 10 mg/kg, mouse, 10 mpk, po, read-out: Ratio of exposure in brain to plasma. As for the experimental part:
Brain Penetration In Vivo Assay
A pharmacokinetic study was performed using C57BL6 wild-type mice (n=3 per experiment) to determine brain and plasma exposure of compounds of the invention. The compound was administered orally in a solution of 5% ETHANOL; 90% PEG 300; 5% TPGS at 5 […] for a final concentration. of 10 mg/kg. Mice were euthanized 1 hour post-dose and plasma and brain were collected and frozen for analysis. Brain tissues were homogenized in a 1:1 volume of blank C57BL6 mouse plasma. Concentrations of the compound in plasma and brain homogenate were determined by LC-MS analysis.

For the compound “N-(4-((3-fluoro-2-methoxy-3-(2-methyl-2H-1,2,3-triazol-4-yl)phenyl)amino)-5-propionylpyridin-2-yl)cyclopropanecarboxamide [Example 5]”, in data set [1], the IC50 came to 710 nM. The “Caco-2 AB” value in the data set with Caco-2 cells is recorded as 258 nm/s.

Take `CCC(=O)c1cnc(NC(=O)C2CC2)cc1Nc1nccc(-c2cnn(C3CC3)n2)c1OC` [Example 2, N-(4-((3-methoxy-4-(2-cyclopropyl-2H-1,2,3-triazol-4-yl)pyridin-2-yl)amino)-5-propionylpyridin-2-yl)cyclopropanecarboxamide]: the 50% inhibitory concentration (IC50) in data set [1] turned out to be 400 nM. For the same compound, in “in vitro”, the Papp A→B at 2 h, 3 μM came out at 18 ×10⁻⁶ cm/s and the efflux ratio at 2 h, 3 μM was 0.2.

For `CCC(=O)c1cnc(NC(=O)C2CC2)cc1Nc1cccc(-c2ncn(C)n2)c1OC` [B, reference compound], in data set [2], the Kp at 1 h was determined as 0.05.

For `CCC(=O)c1cnc(NC(=O)C2CC2)cc1Nc1nccc(-c2ncn(C)n2)c1OC` [A, reference compound], the Kp at 1 h in data set [2] worked out at 0.14.

Take `CCC(=O)c1cnc(NC(=O)C2CC2)cc1Nc1cccc(-c2cnn(C)n2)c1OC` [Example 3, N-(4-((2-methoxy-3-(2-methyl-2H-1,2,3-triazol-4-yl)phenyl)amino)-5-propionylpyridin-2-yl)cyclopropanecarboxamide]: in data set [1], the IC50 came out at 460 nM. Besides, the Kp at 1 h in data set [2] was found to be 3. Further, in the data set “in vitro”, the Papp A→B at 2 h, 3 μM was determined as 18.3 ×10⁻⁶ cm/s and the efflux ratio at 2 h, 3 μM is 0.5.

Take `CCC(=O)c1cnc(NC(=O)C2CC2)cc1Nc1ccc(F)c(-c2cnn(C)n2)c1OC` [Example 4, N-(4-((4-fluoro-2-methoxy-3-(2-methyl-2H-1,2,3-triazol-4-yl)phenyl)amino)-5-propionylpyridin-2-yl)cyclopropanecarboxamide]: the IC50 in data set [1] was found to be 280 nM. Moreover, in the data set “in vitro”, the Papp A→B at 2 h, 3 μM is 54.5 ×10⁻⁶ cm/s and the efflux ratio at 2 h, 3 μM was 0.4.

Take `CCC(=O)c1cnc(NC(=O)C2CC2)cc1Nc1nccc(-c2cnn(C)n2)c1OC` [Example 1, N-(4-((3-methoxy-4-(2-methyl-2H-1,2,3-triazol-4-yl)pyridin-2-yl)amino)-5-propionylpyridin-2-yl)cyclopropanecarboxamide]: the IC50 in data set [1] was determined as 37 nM. For the same compound, the Kp at 1 h in data set [2] was 3.1. In the data set “in vitro”, the Papp A→B at 2 h, 3 μM was 66.3 ×10⁻⁶ cm/s and the efflux ratio at 2 h, 3 μM was determined as 0.1.

Regarding “N-(4-((3-methyl-2-methoxy-3-(2-methyl-2H-1,2,3-triazol-4-yl)phenyl)amino)-5-propionylpyridin-2-yl)cyclopropanecarboxamide [Example 6]”, in data set [1], the IC50 worked out at 770 nM. Moreover, the “Caco-2 AB” value in the data set on Caco-2 cells was found to be 152 nm/s.

The record behind these values is patent US11884650B2, “Substituted heterocyclic compounds” (BRISTOL-MYERS SQUIBB COMPANY, priority 2021, dated 2024).
